# PubChem BioAssay (NCI)
#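 The compound was tested at five concentrations on cells cultured in 96-well plates, with a 48-hour exposure period. GI50 marks 50% less growth. TGI marks complete inhibition of growth.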
# Assays:
# Test in all cases: DTP human tumour cell line panel, 48 h
# MALME-3M melanoma = system: MALME-3M melanoma
# MDA-MB-435 = system: MDA-MB-435
# MOLT-4 leukemia = system: MOLT-4 leukemia
# NCI-H23 lung = system: NCI-H23 lung
# NCI-H522 lung = system: NCI-H522 lung
# OVCAR-3 ovarian = system: OVCAR-3 ovarian
# OVCAR-5 ovarian = system: OVCAR-5 ovarian
# RXF 393 renal = system: RXF 393 renal
# SK-MEL-28 melanoma = system: SK-MEL-28 melanoma
# T-47D breast = system: T-47D breast
Compound,TGI (MALME-3M melanoma) [µM],TGI (MDA-MB-435) [µM],TGI (MOLT-4 leukemia) [µM],TGI (NCI-H23 lung) [µM],TGI (NCI-H522 lung) [µM],TGI (OVCAR-3 ovarian) [µM],TGI (OVCAR-5 ovarian) [µM],TGI (RXF 393 renal) [µM],TGI (SK-MEL-28 melanoma) [µM],GI50 (MDA-MB-435) [µM],GI50 (MOLT-4 leukemia) [µM],GI50 (NCI-H23 lung) [µM],GI50 (OVCAR-3 ovarian) [µM],GI50 (OVCAR-5 ovarian) [µM],GI50 (RXF 393 renal) [µM],GI50 (T-47D breast) [µM],TGI (T-47D breast) [µM],GI50 (MALME-3M melanoma) [µM],GI50 (NCI-H522 lung) [µM],GI50 (SK-MEL-28 melanoma) [µM]
O=C1CN(c2cccc(Cl)c2)C(=O)CN1CCN1CC(=O)N(c2cccc(Cl)c2)CC1=O,> 100,> 100,> 100,71.1,> 100,> 100,> 100,> 100,> 100,–,–,–,–,–,–,–,–,–,–,–
COC[C@H]1Cn2cc(-c3nc(Nc4ccnn4C)ncc3C)nc2C(=O)N1Cc1ccc(F)c(F)c1,–,> 100,> 100,> 100,> 100,> 100,> 100,> 100,–,0.186,23.9,0.181,60.6,0.103,1.66,65.5,> 100,–,–,–
COc1cc(-c2ccc3cc(OC)c(OC)c(OC)c3c2)cc(OC)c1OC,> 100,> 100,> 100,> 100,> 100,> 100,> 100,44,> 100,2.8,> 100,> 100,> 100,> 100,5.91,–,–,8.75,9.54,> 100
N[C@@H]1CCCC[C@@H]1N.O=P([O-])([O-])CN(CCN(CP(=O)([O-])[O-])CP(=O)([O-])[O-])CP(=O)([O-])[O-].[Pt+2],> 25,–,> 25,> 25,> 25,> 25,> 25,> 25,> 25,–,> 25,> 25,> 25,> 25,> 25,–,–,> 25,> 25,> 25
CC(=O)O/N=C(/C)c1ccccc1O,> 100,–,> 100,> 100,> 100,> 100,> 100,> 100,> 100,–,–,–,–,–,–,–,–,–,–,–
O=C(/C=C/c1ccc([N+](=O)[O-])cc1)c1ccc(NCc2nc3ccccc3[nH]2)cc1,28.3,–,10.2,15.3,11.9,11.8,26.3,–,28,–,–,–,–,–,–,–,–,–,–,–
Cc1cc2c(C)[nH]nc2c(C(=O)O)c1C,–,–,> 100,> 100,–,> 100,–,> 100,> 100,–,–,–,–,–,–,–,–,–,–,–
C/C(=N/Nc1ccc([N+](=O)[O-])cc1[N+](=O)[O-])C(CC(C(=O)NCc1ccccc1)/C(C)=N\Nc1ccc([N+](=O)[O-])cc1[N+](=O)[O-])C(=O)NCc1ccccc1 (configuration not stated),30.8,–,–,28.7,–,24.5,56.6,15,22.4,–,–,–,–,–,–,–,–,–,–,–
CC1SC(c2ccc(F)cc2)N(NC(=O)C(O)c2ccccc2)C1=O (configuration not stated),–,> 100,> 100,–,> 100,> 100,> 100,> 100,> 100,> 100,> 100,–,> 100,> 100,> 100,–,–,–,> 100,> 100
CC(=O)OCCOCNC(=S)N/N=C(\C)c1cnccn1,> 100,–,> 100,> 100,97,> 100,40.5,> 100,> 100,–,–,–,–,–,–,–,–,–,–,–
c1ccc(NCn2cnc3ccccc32)cc1,> 100,–,> 100,> 100,> 100,> 100,> 100,> 100,> 100,–,–,–,–,–,–,–,–,–,–,–
COc1ccc(-c2cn[nH]c2-c2cc(OC)c(OC)c(OC)c2)cc1,–,–,4.21,30.2,0.0385,0.0694,36.9,25.1,32,–,0.0457,0.044,0.0228,0.0375,0.0269,–,–,–,0.0101,0.0376
Nc1cc(NN=C(c2ccc(O)cc2)c2ccc(O)cc2)c([N+](=O)[O-])cc1[N+](=O)[O-],5.96,3.44,7.69,6.07,6.51,4.14,8.44,3.15,3.56,1.7,2.76,2.31,1.81,2.85,1.59,–,–,2.45,2.46,1.6
N#C/C(=C\c1cccc(Cl)c1Cl)c1ccccc1,> 70,–,> 100,> 72.9,> 100,> 92.6,> 100,> 79.2,> 100,–,–,–,–,–,–,–,–,–,–,–
COC(=O)CC(c1ccccc1)C1(c2ccccc2)SCCS1 (configuration not stated),> 290,–,> 290,> 290,> 290,> 290,> 290,> 290,> 290,–,–,–,–,–,–,–,–,–,–,–
COc1ccc(OC)c(N2CC(N)C2=O)c1 (configuration not stated),> 100,–,> 100,> 100,> 100,> 100,–,> 100,> 100,–,–,–,–,–,–,–,–,–,–,–
COc1ccc(C)cc1-c1cc(Sc2ccccc2)c(-c2cc(C)ccc2OC)o1,> 31.6,–,> 31.6,> 31.6,> 31.6,> 31.6,> 100,–,> 31.6,–,–,–,–,–,–,–,–,–,–,–
Cc1ccc(Oc2ccc(C)cc2N)cc1,> 100,–,> 100,> 100,–,> 100,> 100,> 100,> 100,–,–,–,–,–,–,–,–,–,–,–
C[C@]12CCC3c4ccc(O)cc4CCC3C1CC[C@@]2(O)CNC(=O)/C=C/c1ccc(O)c(O)c1 (some centres not stated),–,8.07,31.2,–,5.91,21.5,46.9,18.7,59,3.01,5.09,–,2.89,25.1,3.29,6.61,23.9,–,2.51,24.8
CCC(=C/[C@H](C)C/C=C/C(C)=C/[C@@H](C)C(=O)[C@@H](C)[C@H](O)[C@@H](C)CC)/C=C/[C@H]1OC(=O)C=C[C@@H]1C,0.175,< 0.0184,0.114,3.36,–,3.96,–,–,1.26,< 0.01,< 0.01,< 0.01,< 0.01,< 0.01,–,< 0.01,4.88,< 0.01,< 0.01,< 0.01

Compound,TGI (MALME-3M melanoma) [µM],TGI (MDA-MB-435) [µM],TGI (MOLT-4 leukemia) [µM],TGI (NCI-H23 lung) [µM],TGI (NCI-H522 lung) [µM],TGI (OVCAR-3 ovarian) [µM],TGI (OVCAR-5 ovarian) [µM],TGI (RXF 393 renal) [µM],TGI (SK-MEL-28 melanoma) [µM],GI50 (MDA-MB-435) [µM],GI50 (MOLT-4 leukemia) [µM],GI50 (NCI-H23 lung) [µM],GI50 (OVCAR-3 ovarian) [µM],GI50 (OVCAR-5 ovarian) [µM],GI50 (RXF 393 renal) [µM],GI50 (T-47D breast) [µM],TGI (T-47D breast) [µM],GI50 (MALME-3M melanoma) [µM],GI50 (NCI-H522 lung) [µM],GI50 (SK-MEL-28 melanoma) [µM]
COc1cc(C2CC(C)(O)Oc3cc4c(cc32)OCO4)cc(OC)c1OC (configuration not stated),–,–,> 100,> 100,0.661,0.679,> 100,0.403,> 100,–,–,–,–,–,–,–,> 100,–,–,–
CCc1c(OC(C)=O)c2c(NC3OCC(OC(C)=O)C(OC(C)=O)C3OC(C)=O)nc(SC)nc2oc1=O (configuration not stated),> 100,–,> 100,> 100,–,> 100,> 100,> 100,–,–,–,–,–,–,–,–,–,–,–,–
CC(=O)NNc1nc(C)c(C(=O)/C=C/c2ccc(NC(C)=O)cc2)s1,> 100,–,> 100,> 100,> 100,> 100,> 100,> 100,> 100,–,–,–,–,–,–,–,–,–,–,–
O=C(Oc1ccc(Cl)cc1)c1ccccc1Nc1ccnc(C(F)(F)F)c1,–,4.87,> 100,8.55,52.2,26.4,84.4,–,–,2.15,> 100,2.82,11.6,25.6,–,–,–,–,4.22,–
C=C1C(=O)O[C@H]2[C@H]1CC/C(COC(=O)NCc1ccc(Cn3c(=O)sn(-c4ccc(OC)cc4)c3=O)cc1)=C\CC[C@@]1(C)O[C@@H]21,3.76,3.84,5.95,9.9,3.1,3.04,4.81,–,4.1,1.83,1.93,2.97,1.61,2.06,–,1.86,4.53,1.81,1.67,1.97
O=S(=O)(N/N=C/c1cccc(/C=N/NS(=O)(=O)c2ccccc2)c1)c1ccccc1,> 100,–,> 100,> 100,–,> 100,> 100,> 100,> 100,–,–,–,–,–,–,–,–,–,–,–
O=c1ccc2ccccc2cc1[O-].O=c1ccc2ccccc2cc1[O-].[O]=[U+2]=[O],26.3,–,46.2,90.7,56,50.1,> 100,40,47.5,–,4.71,27.2,8.28,30.1,14.4,–,–,5.72,11.6,15.3
CC(C)(C)c1cc2c(O)c3cccc4c(=O)c5cccc6c5-c(c34)c2c(c1)c6=O,> 100,–,> 100,> 100,> 100,> 100,> 100,97.8,–,–,–,–,–,–,–,–,–,–,–,–
CCOC(=O)C1=C(C(=O)OCC)C2c3ccccc3C=CN2C(C(=O)OCC)=C(SC)S1 (configuration not stated),> 100,–,> 100,> 100,> 100,> 100,> 100,> 100,> 100,–,–,–,–,–,–,–,–,–,–,–
O=C1CCC2(c3ccc(Cl)cc3)Nc3ccncc3N12 (configuration not stated),> 10,> 10,> 10,> 10,> 10,> 10,> 10,–,–,–,–,–,–,–,–,–,–,–,–,–
COc1nc(NC2OC(COC(C)=O)C(OC(C)=O)C(OC(C)=O)C2OC(C)=O)c2c(OC(C)=O)cc(=O)oc2n1 (configuration not stated),> 100,–,> 100,> 100,–,> 100,> 100,> 100,–,–,–,–,–,–,–,–,–,–,–,–
Cc1ccc(/C=C/C(=O)CCN(C)C)cc1,39.7,–,51.7,79,–,39.4,> 100,41.6,33.8,–,–,–,–,–,–,–,–,–,–,–
COc1ccc(C2[C@@H](c3ccccc3)C(=O)N2c2cc(OC)c(OC)c(OC)c2)cc1F (some centres not stated),> 100,–,> 100,> 100,0.0657,0.077,> 100,–,> 100,–,0.0381,0.0489,0.028,0.0517,–,> 100,> 100,> 100,0.0186,1.37
CN(C)CCn1c2c3ccccc3ccc2c2oc(=O)c3ccccc3c21,26.3,–,7.25,18.9,27.6,16.9,90.4,–,18.4,–,–,–,–,–,–,–,–,–,–,–
COc1cc(/C(C#N)=C/c2nc3c(N4CCOCC4)nc(Cl)nc3n2C)cc(OC)c1OC,20.8,–,27.5,> 35.4,2.88,< 0.01,> 100,–,> 64.8,–,< 0.0184,< 0.01,< 0.01,< 0.01,–,–,5.63,< 0.01,< 0.01,1.03
CC(C)=CCC(O)C1=CC(=O)c2c(O)ccc(O)c2C1=O (configuration not stated),–,2.82,0.135,2.66,0.694,2.55,3.89,2.11,2.86,–,–,–,–,–,–,–,–,–,–,–
Oc1[nH]c2ccccc2c1N=Nc1nc(-c2ccc(Br)cc2)cs1,–,> 100,> 100,> 100,> 100,67.7,> 100,> 100,53.9,–,–,–,–,–,–,–,–,–,–,–
COC(=O)C(CCCN1C(=O)c2ccccc2C1=O)C(=O)OC,> 100,–,> 100,> 100,> 100,> 100,> 100,> 100,> 100,–,–,–,–,–,–,–,–,–,–,–
COc1ccc(/C=N/NC(=O)c2cccc3cc[nH]c23)cc1O,> 100,–,> 66.2,> 100,> 100,1.89,> 100,> 100,> 100,–,2.84,6.57,0.307,> 54.6,5.83,5.74,> 100,1.96,2.26,6.46
CCCCN(CCCC)C(=O)C(=O)C(C(=O)c1ccc(OC)cc1)c1ccc(OC)cc1 (configuration not stated),> 100,–,> 100,> 100,–,> 100,> 100,> 100,> 100,–,–,–,–,–,–,–,–,–,–,–
